Assay results published in ChEMBL document CHEMBL1201862, “PubChem BioAssay data set” (2004).
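Exposure lasted 48 hours, with cells grown in 96-well plates and compounds tested at five concentrations. The concentration for 50% growth inhibition is given as GI50.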 Active and inactive are the calls of the source. Cut-off read from the data, not from the text of the source: active = GI50 up to about 1.1 µM and inactive = higher.

What was measured:
Experiment in all cases: NCI tumour cell line growth inhibition, 48 h
[1] = tested on: A549
[2] = tested on: BT-549
[3] = tested on: CAKI-1
[4] = tested on: CCRF-CEM
[5] = tested on: DMS-114
[6] = tested on: DMS-273
[7] = tested on: EKVX
[8] = tested on: HCC 2998
[9] = tested on: HCT-116
[10] = tested on: HCT-15
[11] = tested on: HL-60
[12] = tested on: HOP-18
[13] = tested on: IGROV-1
[14] = tested on: K562
[15] = tested on: KM-20L2
[16] = tested on: LOX IMVI
[17] = tested on: LXFL 529
[18] = tested on: M14
[19] = tested on: M19-MEL
[20] = tested on: MDA-MB-231
[21] = tested on: MOLT-4
[22] = tested on: Malme-3M
[23] = tested on: NCI-H522
[24] = tested on: OVCAR-3
[25] = tested on: OVCAR-4
[26] = tested on: PC-3
[27] = tested on: RPMI-8226
[28] = tested on: RXF 393
[29] = tested on: RXF 631
[30] = tested on: SF-268
[31] = tested on: SF-295
[32] = tested on: SF-539
[33] = tested on: SK-MEL-2
[34] = tested on: SK-MEL-5
[35] = tested on: SK-OV-3
[36] = tested on: SN12C
[37] = tested on: SNB-75
[38] = tested on: SNB-78
[39] = tested on: UO-31
[40] = tested on: XF498
[41] = tested on: 786-0
[42] = tested on: A498
[43] = tested on: ACHN
[44] = tested on: DLD-1
[45] = tested on: HOP-62
[46] = tested on: HOP-92
[47] = tested on: HT-29
[48] = tested on: KM12
[49] = tested on: NCI-H226
[50] = tested on: NCI-H23
[51] = tested on: NCI-H460
[52] = tested on: OVCAR-5
[53] = tested on: OVCAR-8
[54] = tested on: SK-MEL-28
[55] = tested on: SNB-19
[56] = tested on: SR
[57] = tested on: SW-620
[58] = tested on: TK-10
[59] = tested on: U-251
[60] = tested on: UACC-257
[61] = tested on: UACC-62

CC1CCC2C(C)C(=O)OC3OC4(C)CCC1C32OO4 (stereo unspecified)
GI50 [1]: 89.1 µM (inactive)
GI50 [2]: 86.5 µM (inactive)
GI50 [3]: > 100 µM (inactive)
GI50 [4]: 83 µM (inactive)
GI50 [5]: > 80.4 µM (inactive)
GI50 [6]: > 100 µM (inactive)
GI50 [7]: > 97.1 µM (inactive)
GI50 [8]: > 100 µM (inactive)
GI50 [9]: 81.7 µM (inactive)
GI50 [10]: 98.4 µM
GI50 [11]: 37.4 µM (inactive)
GI50 [12]: 61.8 µM (inactive)
GI50 [13]: > 88.9 µM (inactive)
GI50 [14]: 33.1 µM (inactive)
GI50 [15]: > 100 µM (inactive)
GI50 [16]: 97.9 µM (inactive)
GI50 [17]: 65.5 µM (inactive)
GI50 [18]: > 100 µM (inactive)
GI50 [19]: > 100 µM (inactive)
GI50 [20]: 62.4 µM (inactive)
GI50 [21]: 66.1 µM (inactive)
GI50 [22]: > 100 µM (inactive)
GI50 [23]: 45.1 µM (inactive)
GI50 [24]: > 67.3 µM (inactive)
GI50 [25]: > 72.8 µM (inactive)
GI50 [26]: 66.8 µM (inactive)
GI50 [27]: 53.2 µM (inactive)
GI50 [28]: 72.9 µM (inactive)
GI50 [29]: > 100 µM (inactive)
GI50 [30]: > 100 µM (inactive)
GI50 [31]: > 100 µM (inactive)
GI50 [32]: > 100 µM (inactive)
GI50 [33]: > 100 µM (inactive)
GI50 [34]: > 96.2 µM (inactive)
GI50 [35]: > 100 µM (inactive)
GI50 [36]: > 92.3 µM (inactive)
GI50 [37]: 61.7 µM (inactive)
GI50 [38]: > 100 µM (inactive)
GI50 [39]: 82.2 µM (inactive)
GI50 [40]: > 100 µM (inactive)

O=C1N2Cc3c4ccc5c3CN3C(=O)N6Cc7c(ccc(c7CN1C6(c1ccccc1)C23c1ccccc1)OCCOCCNCCOCCO4)OCCOCCNCCOCCO5 (stereo unspecified)
GI50 [41]: 31.5 µM (inactive)
GI50 [42]: > 100 µM (inactive)
GI50 [1]: 28.6 µM (inactive)
GI50 [43]: 22.5 µM (inactive)
GI50 [3]: 51.6 µM (inactive)
GI50 [4]: 23.2 µM (inactive)
GI50 [44]: > 100 µM (inactive)
GI50 [5]: > 100 µM (inactive)
GI50 [6]: 41.2 µM (inactive)
GI50 [7]: > 100 µM (inactive)
GI50 [8]: 34.9 µM (inactive)
GI50 [9]: 30.8 µM (inactive)
GI50 [10]: 28.3 µM
GI50 [12]: 14.4 µM (inactive)
GI50 [45]: > 100 µM (inactive)
GI50 [46]: 18 µM (inactive)
GI50 [47]: 13.9 µM (inactive)
GI50 [13]: 65.8 µM (inactive)
GI50 [14]: 69.7 µM (inactive)
GI50 [15]: 52.4 µM (inactive)
GI50 [48]: 18.5 µM (inactive)
GI50 [17]: 13.7 µM (inactive)
GI50 [18]: 21.8 µM (inactive)
GI50 [19]: 24.9 µM (inactive)
GI50 [21]: 19.7 µM (inactive)
GI50 [22]: 23.5 µM (inactive)
GI50 [49]: > 100 µM (inactive)
GI50 [50]: 70.5 µM (inactive)
GI50 [51]: 30.5 µM (inactive)
GI50 [23]: > 100 µM (inactive)
GI50 [24]: 15 µM (inactive)
GI50 [25]: > 100 µM (inactive)
GI50 [52]: > 100 µM (inactive)
GI50 [53]: 65 µM (inactive)
GI50 [27]: 11.7 µM (inactive)
GI50 [28]: 33.2 µM (inactive)
GI50 [29]: 31.4 µM (inactive)
GI50 [30]: > 100 µM (inactive)
GI50 [31]: 65.5 µM (inactive)
GI50 [32]: 56.9 µM (inactive)
GI50 [54]: > 100 µM (inactive)
GI50 [33]: 59.7 µM (inactive)
GI50 [34]: 55.2 µM (inactive)
GI50 [35]: 85.9 µM (inactive)
GI50 [36]: 19.5 µM (inactive)
GI50 [55]: > 100 µM (inactive)
GI50 [37]: > 100 µM (inactive)
GI50 [38]: > 100 µM (inactive)
GI50 [56]: 54.7 µM (inactive)
GI50 [57]: 18 µM (inactive)
GI50 [58]: 26.9 µM (inactive)
GI50 [59]: 28.9 µM (inactive)
GI50 [60]: 16.9 µM (inactive)
GI50 [61]: 42.4 µM (inactive)
GI50 [39]: 38.8 µM (inactive)
GI50 [40]: 60.1 µM (inactive)
